According to patent US20150105252A1, “SUBSTITUTED PYRAZOLES AS HERBICIDES” (E I DU PONT DE NEMOURS AND COMPANY, priority 2013, published 2015):

Tests used:
foxtail, giant = test: Test C postemergence; assay type: in vivo, Setaria faberii
In short: (§1)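 Seeds were sown in a loam soil–sand blend and sprayed preemergence with compounds formulated in a non-phytotoxic solvent mixture containing surfactant. Postemergence plants, grown in peat/vermiculite medium to 2–18 cm (1- to 4-leaf stage), received the same formulation. After 13 to 15 days in a greenhouse, injury was rated visually against controls (0 = no effect, 100 = complete control).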

wheat [1] = test: Test C preemergence; assay type: in vivo, Triticum aestivum; conditions: for Wheat plant response rating: scale 0 to 100 (0 no effect, 100 complete control)
In short: as §1

corn = test: Test C postemergence; assay type: in vivo, Zea mays
In short: as §1

barnyardgrass [2] = test: Test C postemergence; assay type: in vivo, Echinochloa crus-galli
In short: as §1

wheat [3] = test: Test C postemergence; assay type: in vivo, Triticum aestivum
In short: as §1

morningglory = test: Test C postemergence; assay type: in vivo, Ipomoea coccinea
In short: as §1

chickweed = test: Test C postemergence; assay type: in vivo, Stellaria media
In short: as §1

lambsquarters [4] = test: Test C postemergence; assay type: in vivo, Chenopodium album
In short: as §1

barnyardgrass [5] = test: Test B flood; assay type: in vivo, Echinochloa crus-galli; conditions: 250 g ai/ha, visual rating on 0 to 100 scale (0 no effect, 100 complete control), 13 to 15 days
In short: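 Paddy-water application: seedlings at 2-leaf stage, flood depth 3 cm maintained for the test duration. Evaluation after 13–15 days in the greenhouse by eye relative to controls; 0–100 scale.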

kochia = test: Test C postemergence; assay type: in vivo, Kochia scoparia
In short: as §1

lambsquarters [6] = test: Test C preemergence; assay type: in vivo, Chenopodium album; conditions: for Lambsquarters plant response rating: scale 0 to 100 (0 no effect, 100 complete control)
In short: as §1

velvetleaf = test: Test C preemergence; assay type: in vivo, Abutilon theophrasti; conditions: for Velvetleaf plant response rating: scale 0 to 100 (0 no effect, 100 complete control)
In short: as §1

[7] = Postemergence, 31 g ai/ha, visually evaluated after 13 to 15 days
[8] = postemergence, 62 g ai/ha, scale 0 to 100
[9] = postemergence, 250 g ai/ha, scale 0 to 100 (0 no effect, 100 complete control)
[10] = postemergence, 125 g ai/ha, scale 0 to 100, 0 no effect, 100 complete control
[11] = preemergence, 31 g ai/ha, visual rating, 13 to 15 days
[12] = preemergence, 62 g ai/ha, 13 to 15 days
[13] = preemergence, 125 g ai/ha, 13 to 15 days, scale 0 to 100, 0 = no effect, 100 = complete control

CCCc1cc(C(=O)NCC(F)(F)F)nn1Cc1ccnc(OC(F)F)c1 [Compound 127]
90: Plant response rating, Kochia (kochia; [9]) | Plant response rating, Lambsquarters (lambsquarters [6]; [13])
85: Plant response rating (scale of 0 to 100), Wheat (wheat [1]; Preemergence, 250 g ai/ha) | Plant response rating, Wheat (wheat [1]; [13]) | Plant response rating, Morningglory (morningglory; [9]) | Plant response rating, Lambsquarters (lambsquarters [4]; [9]) | Plant response rating, Lambsquarters (lambsquarters [4]; [10])
70: Morningglory plant response rating (morningglory; [8]) | Plant response rating, Barnyardgrass (barnyardgrass [5])
75: Plant response rating (scale of 0 to 100 where 0 is no effect and 100 is complete control), Chickweed (chickweed; [7])
100: Plant response rating (scale of 0 to 100), Lambsquarters (lambsquarters [6]; Preemergence, 250 g ai/ha) | Lambsquarters plant response rating (lambsquarters [6]; [11]) | Plant response rating (scale of 0 to 100), Velvetleaf (velvetleaf; Preemergence, 250 g ai/ha) | Plant response rating, Velvetleaf (velvetleaf; [13])
40: Wheat plant response rating (wheat [1]; [12])
65: Plant response rating (scale of 0 to 100 where 0 is no effect and 100 is complete control), Morningglory (morningglory; [7]) | Plant response rating (scale of 0 to 100 where 0 is no effect and 100 is complete control), Lambsquarters (lambsquarters [4]; [7]) | Kochia plant response rating (kochia; [8]) | Plant response rating, Kochia (kochia; [10])
25: Plant response rating, Corn (corn; [9])
15: Foxtail, Giant plant response rating (foxtail, giant; [8]) | Plant response rating, Foxtail, Giant (foxtail, giant; [10]) | Plant response rating, Barnyardgrass (barnyardgrass [2]; [9])
60: Plant response rating, Morningglory (morningglory; [10]) | Plant response rating (scale of 0 to 100 where 0 is no effect and 100 is complete control), Kochia (kochia; [7]) | Velvetleaf plant response rating (velvetleaf; [11]) | Velvetleaf plant response rating (velvetleaf; [12])
80: Chickweed plant response rating (chickweed; [8]) | Plant response rating, Chickweed (chickweed; [9]) | Plant response rating, Chickweed (chickweed; [10]) | Lambsquarters plant response rating (lambsquarters [4]; [8]) | Lambsquarters plant response rating (lambsquarters [6]; [12])
35: Plant response rating, Foxtail, Giant (foxtail, giant; [9])
5: Wheat plant response rating (wheat [1]; [11]) | Plant response rating (scale of 0 to 100 where 0 is no effect and 100 is complete control), Corn (corn; [7]) | Corn plant response rating (corn; [8]) | Plant response rating (scale of 0 to 100 where 0 is no effect and 100 is complete control), Barnyardgrass (barnyardgrass [2]; [7]) | Barnyardgrass plant response rating (barnyardgrass [2]; [8]) | Plant response rating (scale of 0 to 100 where 0 is no effect and 100 is complete control), Wheat (wheat [3]; [7]) | Wheat plant response rating (wheat [3]; [8]) | Plant response rating, Wheat (wheat [3]; [10])
10: Plant response rating (scale of 0 to 100 where 0 is no effect and 100 is complete control), Foxtail, Giant (foxtail, giant; [7]) | Plant response rating, Corn (corn; [10]) | Plant response rating, Barnyardgrass (barnyardgrass [2]; [10]) | Plant response rating, Wheat (wheat [3]; [9])
